Data taken from patent publication US20260224538A1 (Purdue Research Foundation, priority 2023, published 2026).

Experiments:
tau isoform 2N4R [1] = target: T1, tau isoform 2N4R (Homo sapiens, UniProt P10636); assay: ThT kinetics of tau isoform 2N4R fibril formation; type: biochemical
T1 construct: made in house; host or cells: E. coli BL21(DE3)
Protocol: (§1) The bacterial expression plasmid consisting of the vector pRK172 carrying a cDNA encoding the human Tau 2N4R isoform was obtained from Dr. David Eliezer (Weill Cornell Medicine, New York, NJ). For protein expression, E. coli BL21(DE3) cells were transformed with the plasmid and grown in LB media supplemented with ampicillin (100 μg/mL). Protein over-expression was induced by the addition of 1 mM IPTG for 4 hours at 37° C., and cells were pelleted by centrifugation at 6,000 g for 15 minutes at 4° C. The cells were resuspended in lysis buffer (20 mM MES, 400 mM NaCl, 0.2 mM MgCl2, 1 mM EGTA, protease inhibitor cocktail (P8340, Sigma Aldrich), 0.25 mg/mL lysozyme, and 1 μg/mL DNase 1, pH 6.8) and lysed by a French press cell disruptor at 4° C., after which the lysate was boiled for 20 minutes. Denatured proteins were pelleted by centrifugation at 30,000 g for 30 minutes at 4° C., and the supernatant was dialyzed overnight against cation exchange buffer (20 mM MES, 50 mM NaCl, 1 mM MgCl2, 1 mM EGTA, 2 mM DTT, 0.1 mM PMSF, pH 6.8). The dialysate was loaded onto a HiPrep SP HP column, and proteins were eluted with a linear gradient ranging from 50 mM to 1 M NaCl. Fractions containing tau isoform 2N4R were pooled, and the resulting protein solution was dialyzed against PBS (pH 7.4) and stored at −80° C.
Compounds with the highest anti-fibrillary activity were tested at 3.125, 6.25, 12.5, 25, 50, and 100 μM to obtain dose-response curves with prepared α-syn and 2N4R tau at 6.25 μM and 6 μM, respectively. Compounds were tested with α-syn using a previously published procedure. Concerning the tau (isoform 2N4R) kinetics of fibril formation, measurements of ThT fluorescence were performed with a solution of the protein diluted to a final concentration of 6 μM in PBS (pH 7.4) supplemented with 1.5 μM heparin, 20 μM ThT, 2.5 mM DTT, and 100 μM compound. Aliquots of the diluted protein solution (100 μL each) were pipetted into the wells of a 96-well plate, and a Teflon ball was added to each well. The plate was incubated at 37° C. with constant shaking at 1,000 rpm in a Tecan Spark plate reader. ThT fluorescence was measured every 15 minutes with excitation and emission wavelengths of 440 nm and 480 nm, and the data were plotted using GraphPad Prism.

tau isoform 2N4R [2] = target: T1, tau isoform 2N4R; assay: TEM of tau isoform 2N4R fibrils; type: biochemical; settings: compound 100 μM, tau 10 μM, molar ratio 1:10
Protocol: (§2) Transmission electron microscopy (TEM). After performing analysis with ThT fluorescence assay, TEM was utilized to detect fibril formation. A volume of 10 μL was applied to a 400-mesh Formvar-carbon-coated copper grid (Electron Microscopy Sciences, Hatfield, PA). The grids were incubated for 1 minute and washed three times with distilled water. They were carefully air-dried and incubated for 1 minute in a fresh solution of 1% uranyl acetate. Samples were air-dried and observed using a transmission microscope. Visualization of the grids was performed with TEM (JEOL 1400 Flash, Japan). Acquisition of pictures was performed with settings of accelerating voltage of 100 kV and magnification of 25 k and/or 40 k.

α-syn = target: T2, α-syn (Homo sapiens, UniProt P37840); assay: Transmission electron microscopy (TEM) of α-syn fibrils; type: biochemical; settings: compound 100 μM
T2 construct: purchased rPeptide
Protocol: as §2

tau isoform 2N4R [3] = target: T1, tau isoform 2N4R; assay: PICUP, tau isoform 2N4R oligomerization; type: biochemical
Protocol: as §1
Photo-induced Cross-linking of Unmodified Proteins (PICUP) Assay. To induce oligomerization by cross-linking, α-syn (from Rpeptide, LLC) and tau isoform 2N4R were diluted in 10 mM phosphate buffer (pH 7.4) to reach a final concentration of 10 μM. Different compounds were added to the protein solution at a final concentration of 50 μM, resulting in a molar ratio of 1:5. To confirm the gradual effect of the compounds on the inhibition of α-syn oligomerization, the compounds were tested at final concentrations of 3.125, 6.25, 12.5, 25, and 50 μM. The controls consisted of samples without light exposition, without Ru(bpy) or ammonium persulfate, and without compound (i.e., 0.125% DMSO). The cross-linking reaction was initiated by the addition of 2 μL of Ru(bpy) (300 μM final concentration) and 2 μL ammonium persulfate (6 mM final concentration). Samples were irradiated immediately. Light exposure was of a one-second duration for α-syn and a three-second duration for tau isoform 2N4R, with a 53 W (120 V) incandescent lamp installed in a homemade dark-box. Each tube contained a final volume of 20 μL. After irradiation, 8.3 μL of Laemmli loading buffer containing 15% β-mercaptoethanol were immediately added to the solution, followed by incubation at 95° C. for 10 minutes. The cross-linked samples were separated on a 16% SDS-PAGE gel and visualized by Coomassie blue staining.

[4] = tested on: M17D neuroblastoma cells that express inclusion-prone αS-3K::YFP; assay: α-Syn inclusion-forming neuroblastoma cell experiment; type: cell-based; settings: t=96 hrs
Protocol: α-Syn (or αS) inclusion-forming neuroblastoma cell experiment. Dox-inducible neuroblastoma cells M17D-TR/αS-3K::YFP have been used previously. 96-well plates were used with a cellular density of 30,000 cells per well. Compounds were added […], and αS-3K::YFP transgene expression was induced […]. Induction was done by adding 1 μg per mL (final concentration) dox to culture media. Cells were incubated in the Incucyte Zoom 2000 platform (Essen Biosciences), and images (green, bright field) were taken continuously. Endpoint analysis of inclusion formation or growth was performed 48 hours after induction (96 hours after plating). The Incucyte processing definition ‘Inclusions’ was created as follows: Parameters, Fixed Threshold, Threshold (GCU) 50; Edge Split On, Edge Sensitivity 100; Cleanup, Hole Fill (μm^2): 10, Adjust Size (pixels): 0; Filters, Area (μm^2): max 50, Mean Intensity: min 60, Integrated Intensity: min 2000. Cell confluence was measured by the processing definition ‘Cells’: Parameters, Segmentation Adjustment 0.7; Cleanup, all parameters set to 0; Filters, Area (μm^2): min 345.00. As described previously for the evaluation of protein expression by SDS-PAGE and Western Blotting in the LiCor system, αS-specific monoclonal antibody 4B12 (Thermofisher, Waltham, MA; 1:1000) and a polyclonal antibody to GAPDH (Sigma-Aldrich, St. Louis, MO, G9545; 1:5000) were used.

T1 sequence (P10636 1-441 isoform P10636-8): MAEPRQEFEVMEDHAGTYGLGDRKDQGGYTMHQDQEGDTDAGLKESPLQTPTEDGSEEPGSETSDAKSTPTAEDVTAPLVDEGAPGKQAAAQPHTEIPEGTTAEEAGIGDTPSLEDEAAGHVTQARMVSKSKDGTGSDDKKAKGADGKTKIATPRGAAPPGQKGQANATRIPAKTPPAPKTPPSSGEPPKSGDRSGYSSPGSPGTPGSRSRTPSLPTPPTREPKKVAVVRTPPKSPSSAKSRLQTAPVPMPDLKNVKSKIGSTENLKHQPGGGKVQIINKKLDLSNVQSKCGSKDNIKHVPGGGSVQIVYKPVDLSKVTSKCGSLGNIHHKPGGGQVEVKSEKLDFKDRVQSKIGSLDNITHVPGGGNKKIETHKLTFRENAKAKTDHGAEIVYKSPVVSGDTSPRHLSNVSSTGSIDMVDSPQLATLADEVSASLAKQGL

With `Nc1nsc2ccc([N+](=O)[O-])cc12` [A, 5-nitro-1,2-benzothiazol-3-amine] as the molecule, how does the “tau isoform 2N4R fibrillization (ThT), dose response” value (tau isoform 2N4R [1]; 3.125-100 μM, at 15 hours) read?
The value was “protein fibrillization was reduced”.

What about the “lag time of tau isoform 2N4R fibril formation” value (tau isoform 2N4R [1]; tau 6 μM, compound 100 μM) of the same molecule?
Its value is “delayed the lag time”.

And the “production of tau isoform 2N4R fibrils (ThT kinetic aggregation curves)” value (tau isoform 2N4R [1]; tau 6 μM, compound 100 μM)?
The value was “demonstrating the best anti-fibrillary activity”.

And the “tau isoform 2N4R fibrils by TEM” value (tau isoform 2N4R [2])?
Its value is “clear effect in reducing α-syn and tau fibrillization”.

What about the “α-syn fibrils by TEM” value (α-syn) of the same molecule?
Its value is “clear effect in reducing α-syn and tau fibrillization”.

What about the “tau isoform 2N4R oligomer formation (PICUP), dose dependence” value (tau isoform 2N4R [3]; 3.125-50 μM) of the same molecule?
Its value is “reduced the oligomer formation in a dose-dependent manner”.

What about the “tau isoform 2N4R oligomer formation (PICUP)” value (tau isoform 2N4R [3]; compound 50 μM) of the same molecule?
Its value is “reduced α-syn and tau isoform 2N4R oligomer formation”.

What about the cell confluence ([4]; different concentrations) of the same molecule?
Its cell confluence is “without any effect on the cell confluence”.

What about the “number of αS-3K::YFP inclusions” value ([4]; different concentrations, vs 0.1% DMSO) of the same molecule?
The value was “reduced the number of inclusions in a dose-dependent manner”.

And the “concentration from which the number of inclusions was reduced” value [4]?
The value was 10 µM.
